Results from US7268160B2, “Remedies” (Takara Bio, Inc., priority 2000, dated 2007).

Key:
[1] = system: NGF production in the L-M cells; assay: Enhancing activity for NGF production, Example 13 method (20 hours culture after addition); type: cell-based, murine; settings: for activity at 12.5 µM: added amount 12.5 μM; for activity at 6.25 µM: added amount 6.25 μM; for Enhancement of NGF production (in words): L-M cells; for activity at 3.125 µM: added amount 3.125 μM
Method: (§1) L-M cells (ATCC CCL-1.2) from murine fibroblasts were suspended in an M199 medium (manufactured by ICN) containing 0.5% bactopeptone (manufactured by Gibco BRL) so as to have a concentration of 1.5×10^5 cells/mi. The suspension was put in a 96-well plate in an amount of 0.1 ml each well, and the cells were aseptically cultured. After culturing the cells for 3 days, the medium was removed therefrom, and exchanged with an M199 medium containing 0.5% bovine serum albumin (manufactured by Sigma). Caffeic acid (manufactured by Sigma, dimethyl suif oxide (DMSO) solution), a substance known to have enhancing activity for NGF production, was added to each well containing the cells, so as to have a final concentration of 0, 50, 100 or 200 μM, and the cells were cultured for 24 hours. One having a caffeic acid concentration of 0 μM was used as a negative control. In addition, the final concentration of DM50 in each well was adjusted to 0.1%. After the termination of the culture, the NGF concentration in the culture medium was determined by an enzyme immunoassay method (NGF Emax Immuno Assay System, manufactured by Promega). The degree of the enhancement for NGF production of caffeic acid at each added amount was expressed in percentage as the enhancement ratio (%) on the basis of the NGF concentration in the cell culture medium at each added amount, when the NGF concentration in the cell culture medium of the negative control was defined as 100%. The experiment was carried out twice, and an average value was taken. It was shown that the enhancing activity for NGF production of caffeic acid could be assayed by this method.
The enhancing activity for NGF production of each of the compounds (5) to (12), (17) to (22), (24) and (25) prepared in Preparation Examples 2 to 9 and Examples 1 to 8, and the compound (23) (rosemarinic acid; manufactured by Funakoshi), or caffeic acid (CA), 4-methylcatechol (4MC) and epinephrine (EN), substances conventionally known to enhance NGF production was assayed in the same manner as in Reference Example 1. In addition, the time period for cell culture after the addition of the compound was 20 hours. A negative control was set for every test of each compound. Each experiment was carried out twice, and an average value was taken.
(1) L-M cells (ATCC CCL-1.2) from murine fibroblasts were suspended in an M199 medium (manufactured by ICN) containing 0.5% bactopeptone (manufactured by Gibco) so as to have a concentration of 1.5×10^5 cells/ml. The suspension was put in a 96-well plate in an amount of 0.1 ml each well, and the cells were aseptically cultured. After culturing the cells for 3 days, the medium was removed therefrom, and exchanged with an M199 medium containing 0.5% bovine serum albumin (manufactured by Sigma). Thereto was added an yellow pigment (powder Sun Yellow No. 2, manufactured by San-Ei Gen F.F.I.) obtained by extraction from flower of Carthamus tinctorius LINNE) as the sample so as to have a final concentration of 0, 1.25, 2.5 or 5 mg/ml, and the cells were cultured for 20 hours. After the termination of the culture, the NGF concentration in the culture medium was assayed by an enzyme immunoassay method (NGF Emax Immuno Assay System, manufactured by Promega). The degree of the enhancement for NGF production was expressed in the percentage as an enhancement ratio (%), when the NGF concentration in the cell culture medium with no addition of the sample as the negative control was defined as 100%. The experiment was carried out twice, and an average value was taken. […]
The enhancing activity for NGF production of the purified safflomin A thus obtained was determined in the same manner as in Example 13. The purified safflomin A was added so as to have a fmal concentration of 0 or 2.5 mg/ml. […]

[2] = system: NGF production in the L-M cells; assay: Enhancing activity for NGF production, Reference Example 1 method (24 hours culture, NGF enzyme immunoassay of culture medium); type: cell-based, murine; settings: for Enhancement of NGF production (in words): L-M cells; for Enhancement Ratio (%): negative control = 100%
Method: as §1
The enhancing activity for NGF production of the compound (13) (manufactured by Funakoshi) was assayed in the same manner as in Reference Example 1. The compound (13) was added so as to have a final concentration of 0, 0.5, 1, 2, 5, 10, 20 or 50 μM.
The enhancing activity for NGF production of a compound (14) (manufactured by Sigma) was assayed in the same manner as in Reference Example 1. The compound (14) was added so as to have a final concentration of 0, 50, 100 or 200 μM.
The enhancing activity for NGF production of a compound (15) (manufactured by Sigma) was assayed in the same manner as in Reference Example 1. The compound (15) was added so as to have a final concentration of 0, 12.5, 25 or 50 μM.
The enhancing activity for NGF production of a compound (16) (manufactured by Wako Pure Chemical Industries) was assayed in the same manner as in Reference Example 1. The compound (16) was added so as to have a final concentration of 0, 25, 50 or 100 μM.

[3] = Mus musculus, negative control = 100%, read-out: Enhancement Ratio (%)
[4] = Mus musculus, added amount 25 μM, negative control = 100%, read-out: Enhancement Ratio (%)
[5] = Mus musculus, added amount 50 μM, negative control = 100%, read-out: Enhancement Ratio (%)
[6] = added amount 100 μM, negative control = 100%
[7] = Mus musculus, added amount 100 μM, negative control = 100%, read-out: Enhancement Ratio (%)
[8] = Mus musculus, added amount 200 μM, negative control = 100%, read-out: Enhancement Ratio (%)

O=C(/C=C/c1ccc(O)c(O)c1)c1ccc(O)c(O)c1 [Compound (19), 3,4,3′,4′-Tetrahydroxychalcone]
activity at 12.5 µM [1, 3]: 269% | activity at 25 µM [1, 4]: 312% | activity at 50 µM [1, 5]: 844%

O=C(/C=C/c1ccc(O)c(O)c1)c1cc(O)ccc1O [Compound (18), 3,4,2′,5′-Tetrahydroxychalcone]
activity at 6.25 µM [1, 3]: 471% | activity at 12.5 µM [1, 3]: 476% | activity at 25 µM [1, 4]: 874%

Isoliquiritigenin [Compound (14)]
Enhancement of NGF production (in words) [2]: enhanced NGF production in the L-M cells in a concentration-dependent manner | Enhancement Ratio (%) ([2]; added amount 50 μM): 310% | Enhancement Ratio (%) ([2]; added amount 100 μM): 550% | Enhancement Ratio (%) ([2]; added amount 200 μM): 1884%

COc1ccc(C(=O)/C=C/c2ccc(O)c(O)c2)c(OC)c1 [Compound (7), 3,4-Dihydroxy-2′,4′-dimethoxy chalcone]
activity at 6.25 µM [1, 3]: 359% | activity at 12.5 µM [1, 3]: 410% | activity at 25 µM [1, 4]: 899%

COc1cc(/C=C/C(=O)CC(=O)/C=C/c2ccc(O)c(OC)c2)ccc1O [Compound (16), Curcumin]
Enhancement of NGF production (in words) [2]: enhanced NGF production in the L-M cells in a concentration-dependent manner | Enhancement Ratio (%) ([2]; added amount 25 μM): 114% | Enhancement Ratio (%) ([2]; added amount 50 μM): 116% | Enhancement Ratio (%) ([2]; added amount 100 μM): 261%

O=C(CCc1ccc(O)c(O)c1)c1ccc(O)cc1O [Compound (10), Dihydrobutein]
activity at 6.25 µM [1, 3]: 174% | activity at 12.5 µM [1, 3]: 333% | activity at 25 µM [1, 4]: 839%

α-Hydroxybutein [Compound (25)]
Enhancement Ratio (%) ([1]; added amount 31.25 μM, negative control = 100%): 160.6% | Enhancement Ratio (%) ([1]; added amount 62.5 μM, negative control = 100%): 183.6% | Enhancement Ratio (%) ([1]; added amount 125 μM, negative control = 100%): 273.6% | Enhancement Ratio (%) ([1]; added amount 250 μM, negative control = 100%): 495.3%

O=C(/C=C/c1ccc(O)c(O)c1)c1ccc(Cl)cc1Cl [Compound (6), 3,4-Dihydroxy-2′,4′-dichloro chalcone]
activity at 6.25 µM [1, 3]: 763% | activity at 12.5 µM [1, 3]: 864%

O=C(/C=C/c1ccc(O)c(O)c1)c1cc(O)cc(O)c1 [Compound (20), 3,4,3′,5′-Tetrahydroxychalcone]
activity at 12.5 µM [1, 3]: 346% | activity at 25 µM [1, 4]: 482% | activity at 50 µM [1, 5]: 692%

Xanthoangelol [Compound (24)]
Enhancement Ratio (%) ([1]; added amount 25 μM, negative control = 100%): 126.1% | Enhancement Ratio (%) ([1]; added amount 50 μM, negative control = 100%): 202.6% | Enhancement Ratio (%) [1, 6]: 265.7%

O=C(C/C=C/c1ccc(O)c(O)c1)C12CC3CC(CC(C3)C1)C2 [Compound (11), 1-Adamantyl-4-(3,4-dihydroxyphenyl)-3-buten-1-one]
activity at 0.781 µM ([1]; Mus musculus, added amount 0.781 μM, negative control = 100%, read-out: Enhancement Ratio (%)): 775% | activity at 1.563 µM ([1]; Mus musculus, added amount 1.563 μM, negative control = 100%, read-out: Enhancement Ratio (%)): 866%

O=C(/C=C/c1ccc(O)c(O)c1)c1ccc(O)c(O)c1O [Compound (22), 3,4,2′,3′,4′-Pentahydroxy chalcone]
activity at 50 µM [1, 5]: 124% | activity at 100 µM [1, 7]: 130% | activity at 200 µM [1, 8]: 242%

COc1cc(O)c(CC=C(C)C)c(O)c1C(=O)/C=C/c1ccc(O)cc1 [xanthohumol, Xanthohumol]
Enhancement of NGF production (in words) [1]: enhanced NGF production in the L-M cells in a concentration-dependent manner | activity at 15.6 µM ([1]; Mus musculus, added amount 15.6 μM, negative control = 100%, read-out: Enhancement Ratio (%)): 160% | activity at 31.3 µM ([1]; Mus musculus, added amount 31.3 μM, negative control = 100%, read-out: Enhancement Ratio (%)): 212% | activity at 62.5 µM ([1]; Mus musculus, added amount 62.5 μM, negative control = 100%, read-out: Enhancement Ratio (%)): 473% | activity at 125 µM ([1]; Mus musculus, added amount 125 μM, negative control = 100%, read-out: Enhancement Ratio (%)): 897%

O=C(/C=C/c1ccc(O)c(O)c1)OCCc1ccccc1 [Compound (15), Caffeic acid phenylethylester]
Enhancement of NGF production (in words) [2]: enhanced NGF production in the L-M cells in a concentration-dependent manner | Enhancement Ratio (%) ([2]; added amount 12.5 μM): 236% | Enhancement Ratio (%) ([2]; added amount 25 μM): 263% | Enhancement Ratio (%) ([2]; added amount 50 μM): 320%

O=C(/C=C/c1ccc(O)c(O)c1)c1ccccc1O [Compound (21), 3,4,2′-Trihydroxychalcone]
activity at 25 µM [1, 4]: 223% | activity at 50 µM [1, 5]: 229% | activity at 100 µM [1, 7]: 502%

Rosmarinic acid [Compound (23)]
Enhancement Ratio (%) [1, 6]: 110.9% | Enhancement Ratio (%) ([1]; added amount 200 μM, negative control = 100%): 131.1%

CNC[C@H](O)c1ccc(O)c(O)c1 [EN, epinephrine, reference compound]
activity at 50 µM [1, 5]: 137% | activity at 100 µM [1, 7]: 218% | activity at 200 µM [1, 8]: 255%

Cc1ccc(O)c(O)c1 [Compound 4MC, 4-methylcatechol, reference compound]
activity at 12.5 µM [1, 3]: 143% | activity at 25 µM [1, 4]: 313%

O=C(O)/C=C/c1ccc(O)c(O)c1 [CA, caffeic acid, reference compound]
activity at 50 µM [1, 5]: 165% | activity at 100 µM [1, 7]: 170% | activity at 200 µM [1, 8]: 200% | Enhancement of NGF production (in words) [2]: enhanced NGF production in a concentration-dependent manner | Enhancement Ratio (%) ([2]; added amount 50 μM): 89.7% | Enhancement Ratio (%) ([2]; added amount 100 μM): 150% | Enhancement Ratio (%) ([2]; added amount 200 μM): 349%

O=C(/C=C/c1cc(O)c(O)c(O)c1)c1ccc(O)cc1O [Compound (17), 3,4,5,2′,4′-Pentahydroxychalcone]
activity at 12.5 µM [1, 3]: 195% | activity at 25 µM [1, 4]: 598%

CC(=O)C=Cc1ccc(O)c(O)c1 [Compound (8), 4-(3,4-Dihydroxyphenyl)-3-buten-2-one]
activity at 50 µM [1, 5]: 375% | activity at 100 µM [1, 7]: 676%

O=C(CC(O)Cc1ccc(O)c(O)c1)C12CC3CC(CC(C3)C1)C2 (centres unmarked) [Compound (12), 1-Adamantyl-3-hydroxy-4-(3,4-dihyroxyphenyl)-butan-1-one]
activity at 3.125 µM [1, 3]: 108% | activity at 6.25 µM [1, 3]: 364% | activity at 12.5 µM [1, 3]: 966% | activity at 25 µM [1, 4]: 908%

Safflomin A
Enhancement of NGF production (in words) [1]: enhanced NGF production of the L-M cells | Enhancement Ratio (%) ([1]; added amount 2.5 mg/ml, negative control = 100%): 130.7%

O=C(/C=C/c1ccc(O)c(O)c1)C12CC3CC(CC(C3)C1)C2 [Compound (9), 1-Adamantyl-3-(3,4-dihydroxyphenyl)-2-propen-1-one]
activity at 3.125 µM [1, 3]: 206% | activity at 6.25 µM [1, 3]: 550% | activity at 12.5 µM [1, 3]: 810%

CC(=O)Oc1ccc(C(=O)/C=C/c2ccc(OC(C)=O)c(OC(C)=O)c2)c(OC(C)=O)c1 [Compound (5), 3,4,2′,4′-Tetraacetylbutein]
activity at 6.25 µM [1, 3]: 684%
